Measurements: patent US20240000872A1, “NOVEL BACTERIOPHAGE THAT LYSES ACINETOBACTER GENUS BACTERIA HAVING RESISTANCE TO ANTIBIOTICS” (priority 2020, published 2024)

Test system: Acinetobacter baumannii strains
Assay: Antibiotic susceptibility test (CLSI disk diffusion test method, read per CLSI 2016); note: key: ‘S’ means susceptible; ‘I’ means intermediate; ‘R’ means resistant
Format: cell-based

Structure (SMILES): CC(C)(O/N=C(\C(=O)N[C@@H]1C(=O)N2C(C(=O)[O-])=C(C[n+]3ccccc3)CS[C@H]12)c1csc(N)n1)C(=O)O [Ceftazidime, ceftazidime]
- antibiotic susceptibility class (host strain YMC14/01/C29): R
- antibiotic susceptibility class (host strain YMC14/01/IP122): R
- antibiotic susceptibility class (host strain YMC14/01/L8): R
- antibiotic susceptibility class (host strain YMC14/01/P31): R
- antibiotic susceptibility class (host strain YMC14/01/P117): R
- antibiotic susceptibility class (host strain YMC14/01/P224): R
- antibiotic susceptibility class (host strain YMC14/01/P727): R
- antibiotic susceptibility class (host strain YMC14/01/P728): R
- antibiotic susceptibility class (host strain YMC14/01/R130): R
- antibiotic susceptibility class (host strain YMC14/01/R160): R
- antibiotic susceptibility class (host strain YMC14/01/R198): R
- antibiotic susceptibility class (host strain YMC14/01/R257): R
- antibiotic susceptibility class (host strain YMC14/01/R270): R
- antibiotic susceptibility class (host strain YMC14/01/R324): R
- antibiotic susceptibility class (host strain YMC14/01/R443): R
- antibiotic susceptibility class (host strain YMC14/01/R451): R
- antibiotic susceptibility class (host strain YMC14/01/R560): R
- antibiotic susceptibility class (host strain YMC14/01/R617): I
- antibiotic susceptibility class (host strain YMC14/01/R671): R
- antibiotic susceptibility class (host strain YMC14/01/R732): R
- antibiotic susceptibility class (host strain YMC14/01/R767): R
- antibiotic susceptibility class (host strain YMC14/01/R904): R
- antibiotic susceptibility class (host strain YMC14/01/R905): R
- antibiotic susceptibility class (host strain YMC14/01/R921): R
- antibiotic susceptibility class (host strain YMC14/01/R941): R
- antibiotic susceptibility class (host strain YMC14/01/R958): R
- antibiotic susceptibility class (host strain YMC14/01/R1006): R
- antibiotic susceptibility class (host strain YMC14/01/R1199): R
- antibiotic susceptibility class (host strain YMC14/01/R1659): R
- antibiotic susceptibility class (host strain YMC14/01/R1722): R
- antibiotic susceptibility class (host strain YMC14/01/R1752): R
- antibiotic susceptibility class (host strain YMC14/01/R2429): R
- antibiotic susceptibility class (host strain YMC14/01/R2572): R
- antibiotic susceptibility class (host strain YMC14/01/R2855): R
- antibiotic susceptibility class (host strain YMC14/01/R2945): R
- antibiotic susceptibility class (host strain YMC14/01/R3007): R
- antibiotic susceptibility class (host strain YMC14/01/R3129): R
- antibiotic susceptibility class (host strain YMC14/01/R3317): R
- antibiotic susceptibility class (host strain YMC14/01/R3474): R
- antibiotic susceptibility class (host strain YMC14/01/R3574): R
- antibiotic susceptibility class (host strain YMC14/01/U313): R
- antibiotic susceptibility class (host strain YMC14/01/U318): R
- antibiotic susceptibility class (host strain YMC14/02/L18): R
- antibiotic susceptibility class (host strain YMC14/02/P47): R
- antibiotic susceptibility class (host strain YMC14/02/R1860): R
- antibiotic susceptibility class (host strain YMC14/02/R2417): R
- antibiotic susceptibility class (host strain YMC14/02/R2599): R
- antibiotic susceptibility class (host strain YMC14/02/R2668): R
- antibiotic susceptibility class (host strain YMC14/02/R2758): R
- antibiotic susceptibility class (host strain YMC14/02/R2781): R
- antibiotic susceptibility class (host strain YMC14/02/R3106): R
- antibiotic susceptibility class (host strain YMC14/02/R3419): R
- antibiotic susceptibility class (host strain YMC14/02/U1607): R
- antibiotic susceptibility class (host strain YMC14/03/L9): R
- antibiotic susceptibility class (host strain YMC14/03/P471): R
- antibiotic susceptibility class (host strain YMC14/03/R122): R
- antibiotic susceptibility class (host strain YMC14/03/R217): R
- antibiotic susceptibility class (host strain YMC14/03/R380): R
- antibiotic susceptibility class (host strain YMC14/03/R618): R
- antibiotic susceptibility class (host strain YMC14/03/R2144): R
- antibiotic susceptibility class (host strain YMC14/03/U4616): R
- antibiotic susceptibility class (host strain YMC14/04/R1078): R
- antibiotic susceptibility class (host strain YMC14/04/R1080): R
- antibiotic susceptibility S/I/R (host strain YMC14/06/R2359): R
- susceptibility category (S/I/R) (host strain YMC14/06/R2359): R
- antibiotic susceptibility S/I/R (host strain YMC14/08/R1169): R
- susceptibility category (S/I/R) (host strain YMC14/08/R1169): R
- antibiotic susceptibility S/I/R (host strain YMC14/08/T90): R
- susceptibility category (S/I/R) (host strain YMC14/08/T90): R
- antibiotic susceptibility S/I/R (host strain YMC15/02/R436): R
- susceptibility category (S/I/R) (host strain YMC15/02/R436): R
- antibiotic susceptibility S/I/R (host strain YMC15/02/T28): R
- susceptibility category (S/I/R) (host strain YMC15/02/T28): R
- antibiotic susceptibility S/I/R (host strain YMC15/03/R1604): R
- susceptibility category (S/I/R) (host strain YMC15/03/R1604): R
- antibiotic susceptibility S/I/R (host strain YMC15/09/R1869): R
- susceptibility category (S/I/R) (host strain YMC15/09/R1869): R
- antibiotic susceptibility S/I/R (host strain YMC16/01/P11): R
- susceptibility category (S/I/R) (host strain YMC16/01/P11): R
- antibiotic susceptibility S/I/R (host strain YMC16/01/R123): R
- susceptibility category (S/I/R) (host strain YMC16/01/R123): R
- antibiotic susceptibility S/I/R (host strain YMC16/01/R198): R
- susceptibility category (S/I/R) (host strain YMC16/01/R198): R
- antibiotic susceptibility S/I/R (host strain YMC16/01/R353): R
- susceptibility category (S/I/R) (host strain YMC16/01/R353): R
- antibiotic susceptibility S/I/R (host strain YMC16/01/R380): R
- susceptibility category (S/I/R) (host strain YMC16/01/R380): R
- antibiotic susceptibility S/I/R (host strain YMC16/01/R397): R
- susceptibility category (S/I/R) (host strain YMC16/01/R397): R
- antibiotic susceptibility S/I/R (host strain YMC16/01/R405): R
- susceptibility category (S/I/R) (host strain YMC16/01/R405): R
- antibiotic susceptibility S/I/R (host strain YMC16/03/R4461): R
- susceptibility category (S/I/R) (host strain YMC16/03/R4461): R
- antibiotic susceptibility S/I/R (host strain YMC16/05/R2210): R
- susceptibility category (S/I/R) (host strain YMC16/05/R2210): R
- antibiotic susceptibility S/I/R (host strain YMC16/07/R2512): R
- susceptibility category (S/I/R) (host strain YMC16/07/R2512): R
- antibiotic susceptibility S/I/R (host strain YMC16/09/R2471): R
- susceptibility category (S/I/R) (host strain YMC16/09/R2471): R
- antibiotic susceptibility S/I/R (host strain YMC16/10/R2537): R
- susceptibility category (S/I/R) (host strain YMC16/10/R2537): R
- antibiotic susceptibility S/I/R (host strain YMC16/12/B11422): R
- susceptibility category (S/I/R) (host strain YMC16/12/B11422): R
- antibiotic susceptibility S/I/R (host strain YMC16/12/B11449): R
- susceptibility category (S/I/R) (host strain YMC16/12/B11449): R
- antibiotic susceptibility S/I/R (host strain YMC16/12/B13325): R
- susceptibility category (S/I/R) (host strain YMC16/12/B13325): R
- antibiotic susceptibility S/I/R (host strain YMC16/12/P503): R
- susceptibility category (S/I/R) (host strain YMC16/12/P503): R
- antibiotic susceptibility S/I/R (host strain YMC16/12/R4637): R
- susceptibility category (S/I/R) (host strain YMC16/12/R4637): R
- antibiotic susceptibility S/I/R (host strain YMC17/01/B8053): R
- susceptibility category (S/I/R) (host strain YMC17/01/B8053): R
- antibiotic susceptibility S/I/R (host strain YMC17/01/B10087): R
- susceptibility category (S/I/R) (host strain YMC17/01/B10087): R
- antibiotic susceptibility S/I/R (host strain YMC17/01/B12075): R
- susceptibility category (S/I/R) (host strain YMC17/01/B12075): R
- antibiotic susceptibility S/I/R (host strain YMC17/01/B13454): R
- susceptibility category (S/I/R) (host strain YMC17/01/B13454): R
- antibiotic susceptibility S/I/R (host strain YMC17/01/P518): R
- susceptibility category (S/I/R) (host strain YMC17/01/P518): R
- antibiotic susceptibility S/I/R (host strain YMC17/01/R2812): R
- susceptibility category (S/I/R) (host strain YMC17/01/R2812): R
- antibiotic susceptibility S/I/R (host strain YMC17/02/B14): R
- susceptibility category (S/I/R) (host strain YMC17/02/B14): R
- antibiotic susceptibility S/I/R (host strain YMC17/02/B87): R
- susceptibility category (S/I/R) (host strain YMC17/02/B87): R
- antibiotic susceptibility S/I/R (host strain YMC17/02/B721): R
- susceptibility category (S/I/R) (host strain YMC17/02/B721): R
- antibiotic susceptibility S/I/R (host strain YMC17/02/B4039): R
- susceptibility category (S/I/R) (host strain YMC17/02/B4039): R
- antibiotic susceptibility S/I/R (host strain YMC17/02/B4520): R
- susceptibility category (S/I/R) (host strain YMC17/02/B4520): R
- antibiotic susceptibility S/I/R (host strain YMC17/02/B4864): S
- susceptibility category (S/I/R) (host strain YMC17/02/B4864): S
- antibiotic susceptibility S/I/R (host strain YMC17/02/B8414): R
- susceptibility category (S/I/R) (host strain YMC17/02/B8414): R
- antibiotic susceptibility S/I/R (host strain YMC17/02/P523): R
- susceptibility category (S/I/R) (host strain YMC17/02/P523): R
- antibiotic susceptibility S/I/R (host strain YMC17/02/R541): R
- susceptibility category (S/I/R) (host strain YMC17/02/R541): R
- antibiotic susceptibility S/I/R (host strain YMC17/02/R2392): R
- susceptibility category (S/I/R) (host strain YMC17/02/R2392): R
- antibiotic susceptibility S/I/R (host strain YMC17/03/B4730): R
- susceptibility category (S/I/R) (host strain YMC17/03/B4730): R
- antibiotic susceptibility S/I/R (host strain YMC17/03/B5000): R
- susceptibility category (S/I/R) (host strain YMC17/03/B5000): R
- antibiotic susceptibility S/I/R (host strain YMC17/03/P971): R
- susceptibility category (S/I/R) (host strain YMC17/03/P971): R
- antibiotic susceptibility S/I/R (host strain YMC17/03/R348): R
- susceptibility category (S/I/R) (host strain YMC17/03/R348): R
- antibiotic susceptibility S/I/R (host strain YMC17/03/R585): R
- susceptibility category (S/I/R) (host strain YMC17/03/R585): R
- antibiotic susceptibility S/I/R (host strain YMC17/03/R1888): R
- susceptibility category (S/I/R) (host strain YMC17/03/R1888): R
- antibiotic susceptibility S/I/R (host strain YMC17/03/R3279): R
- susceptibility category (S/I/R) (host strain YMC17/03/R3279): R
- antibiotic susceptibility S/I/R (host strain YMC17/03/R4077): R
- susceptibility category (S/I/R) (host strain YMC17/03/R4077): R
- antibiotic susceptibility S/I/R (host strain YMC17/03/R4607): R
- susceptibility category (S/I/R) (host strain YMC17/03/R4607): R
- antibiotic susceptibility S/I/R (host strain YMC17/04/R488): R
- susceptibility category (S/I/R) (host strain YMC17/04/R488): R
- antibiotic susceptibility S/I/R (host strain YMC17/04/R640): R
- susceptibility category (S/I/R) (host strain YMC17/04/R640): R
- antibiotic susceptibility S/I/R (host strain YMC/17/05/R1095): R
- susceptibility category (S/I/R) (host strain YMC/17/05/R1095): R
